Experimental findings from ChEMBL document CHEMBL1138701, “Anti-AIDS agents. Part 62: anti-HIV activity of 2'-substituted 4-methyl-3',4'-di-O-(-)-camphanoyl-(+)-cis-khellactone (4-methyl DCK) analogs” (Bioorg Med Chem Lett, 2004) are described below.

Where only a bound is given, the exact number is not on record here.

A short description of data set [1]: Therapeutic index expressed as ratio of IC50 for 50% growth inhibition to EC50 for 50% replication inhibition. The class given is cell-based. As to conditions: human, H9 cells; read-out: TI.
Data set [2] concerns H9. In words: Concentration required to inhibit 50% growth of uninfected H9 cells. It is filed as functional, cell-based. The conditions noted are these: Homo sapiens.
The subject of data set [3] is Human immunodeficiency virus. Briefly: Concentration required to inhibit 50% of HIV (human immunodeficiency virus) replication. The conditions noted are these: Human immunodeficiency virus 1. The class given is functional, organism-based.

In general, IC50 refers to the concentration that inhibits the measured activity by half. Read a high IC50 as weaker potency in that assay. For orientation: EC50 means the concentration that produces a half-maximal response. A higher EC50 goes with a need for much substance.

Take `CCCC1(C)Oc2ccc3c(C)cc(=O)oc3c2[C@@H](OC(=O)C23CCC(C)(C(=O)O2)C3(C)C)[C@H]1OC(=O)C12CCC(C)(C(=O)O1)C2(C)C` (stereo partly specified): the selectivity ratio in data set [1] is greater than 5.9. In data set [2], the IC50 was greater than 37.6 µM. This molecule came in with an EC50 in data set [3] of 6.4 µM.

Turning to `CC1(C)Oc2ccc3ccc(=O)oc3c2[C@@H](OC(=O)C23CCC(C)(C(=O)O2)C3(C)C)[C@H]1OC(=O)C12CCC(C)(C(=O)O1)C2(C)C` (stereo partly specified), the selectivity ratio in data set [1] was greater than 328. The molecule further returned an IC50 in data set [2] greater than 16.1 µM. Besides, in data set [3], a half-maximal response (EC50) required 0.049 µM.

As to `CCC1(C)Oc2ccc3c(C)cc(=O)oc3c2[C@@H](OC(=O)C23CCC(C)(C(=O)O2)C3(C)C)[C@H]1OC(=O)C12CCC(C)(C(=O)O1)C2(C)C` (stereo partly specified), in data set [1], the selectivity ratio was greater than 175. In addition, the IC50 in data set [2] was greater than 38.4 µM. The molecule also showed an EC50 in data set [3] of 0.22 µM.

Regarding `Cc1cc(=O)oc2c3c(ccc12)OC[C@H](OC(=O)C12CCC(C)(C(=O)O1)C2(C)C)[C@@H]3OC(=O)C12CCC(C)(C(=O)O1)C2(C)C` (stereo partly specified), the selectivity ratio in data set [1] is greater than 6. Further, the IC50 in data set [2] was greater than 41.1 µM. In data set [3], the EC50 came out at 6.9 µM.

With `CCC1(CC)Oc2ccc3c(C)cc(=O)oc3c2[C@@H](OC(=O)C23CCC(C)(C(=O)O2)C3(C)C)[C@H]1OC(=O)C12CCC(C)(C(=O)O1)C2(C)C` (stereo partly specified), the selectivity ratio in data set [1] was greater than 13.2. This molecule also had an IC50 in data set [2] greater than 37.6 µM. This molecule displayed an EC50 in data set [3] of 2.84 µM.

Consider `Cc1cc(=O)oc2c3c(ccc12)OC(C)(C)[C@H](OC(=O)C12CCC(C)(C(=O)O1)C2(C)C)[C@@H]3OC(=O)C12CCC(C)(C(=O)O1)C2(C)C` (stereo partly specified), for which, in data set [1], the selectivity ratio is greater than 6600. This molecule also showed an IC50 in data set [2] greater than 38.9 µM. In data set [3], this molecule yielded an EC50 of 0.0059 µM.

On to `Cc1cn([C@H]2C[C@H](N=[N+]=[N-])[C@@H](CO)O2)c(=O)[nH]c1=O` [ZIDOVUDINE], for which, in data set [1], the selectivity ratio came out at 39000. Also, the 50% inhibitory concentration (IC50) in data set [2] was determined as 1870 µM. This molecule came in with an EC50 in data set [3] of 0.04 µM.
